Experimental data published in patent publication US20100087392A1 (Pierre Fabre Medicament, priority 2007, published 2010).

Assay: in vivo
Details: rat, po, 20 mg/kg
Protocol: Chromatographic Conditions: • Column: Synergi Fusion-RP 80, 2×50 mm, 4 microns
Mobile Phase: • Channel A: 13.3 mM ammonium formate/6.7 mM formic acid in water • Channel B: 6 mM ammonium formate/3 mM formic acid in water/acetonitrile (1/9, v/v)
• Plot of the curve/obtaining the plasma profile=plasma concentration as a function of the time post administration

`CC(C)Cc1ccc(C(C)C(=O)O)cc1` (stereo not drawn) [IBU alone, ibuprofen] showed an AUC of 7190 ng·h/mL, a Cmax of 2280 ng/mL and a Tmax of 30 min.
